Results on 13 compounds are retold here after patent US20260234165A1, “MACROCYCLIC COMPOUNDS, PREPARATION METHOD THEREFOR, AND USE THEREOF” (GENFLEET THERAPEUTICS (SHANGHAI) INC., priority 2004, published 2026).

Read-outs that look alike come from different tables or passages of the source.

For assay [1], the system named is AsPC-1 cells (KRAS G12D mutation). The experiment in a line: 3D cell proliferation assay (CellTiter Glo-3D), AsPC-1. The class given is cell-based, human. As to conditions: medium with 2% FBS, read-out: AsPC-1 AP IC50. In outline:
(§1)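 Five-day treatment of NCI-H441 or AsPC-1 cells (800/well, 2% FBS RPMI-1640, 0.1% DMSO) with graded compound concentrations; ATP content by CellTiter-Glo 3D; IC50 fitted.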

A further assay relates to NCI-H441 cells. The experiment in a line: 3D cell proliferation assay (CellTiter Glo-3D), NCI-H441. The class given is cell-based, human. Particulars: medium with 2% FBS, read-out: H441 AP IC50. The method, boiled down: as §1
For orientation: In ATP-based viability assays light output follows the ATP content of the culture.

Where [2] appears, read: 3D cell proliferation (CellTiter Glo-3D).
The mark [3] stands for this setting: Homo sapiens, ASPC1, 3D cell proliferation (CellTiter Glo-3D).
Setting [4] is: Homo sapiens, NCI-H441, 3D cell proliferation (CellTiter Glo-3D).

For `CCn1c(-c2cc(C#CCN(C)CCOC)cnc2[C@H](C)OC)c2c3cc(ccc31)-c1csc(n1)C[C@H](NC(=O)[C@H]1[C@H](C)[C@@H]1C)C(=O)N1CCC[C@H](N1)C(=O)OCC(C)(C)C2` (atropisomer, axis not shown; (Ra)) [Compound Z788], the values for the concentration for half-maximal inhibition (IC50) (in assay [1] (setting [2]); with NCI-H441 cells (setting [2])) were 0.78 nM and 0.28 nM, respectively.
As for `CCn1c(-c2cc(C#CCN3CCS(=O)(=O)CC3)cnc2[C@H](C)OC)c2c3cc(ccc31)-c1csc(n1)C[C@H](Nc1nnc3cc(C)ccn13)C(=O)N1CCC[C@H](N1)C(=O)OCC(C)(C)C2` (atropisomer, axis not shown; (Ra)) [Compound Z911, (6^3S,4S,Z)—(Ra)-1^2-(5-(3-(1,1-dioxidothiomorpholino)prop-1-yn-1-yl)-2-((S)-1-methoxyethyl)pyridin-3-yl)-1^1-ethyl-10,10-dimethyl-4-((7-methyl-[1,2,4]triazolo[4,3-a]pyridin-3-yl)amino)-6^1,6^2,6^3,6^4,6^5,6^6-hexahydro-1^1H-8-oxa-2(4,2)-thiazola-1(5,3)-indola-6(1.3)-pyridazinacycloundecaphane-5,7-dione], the IC50 in assay [1] (setting [3]) was determined as 2.27 nM; in the assay with NCI-H441 cells (setting [4]) it was 1.16 nM.
The matching figures for `CCn1c(-c2cc(C#CCN3CCC3)cnc2[C@H](C)OC)c2c3cc(ccc31)-c1csc(n1)C[C@H](NC(=O)[C@H]1[C@H](C)[C@@H]1C)C(=O)N1CCC[C@H](N1)C(=O)OCC(C)(C)C2` (single isomer, unassigned) [Compound Z554]: 1.18 nM and 0.83 nM.
On to `CCn1c(-c2cc(C#CCN3CCN(C)C(=O)C3)cnc2[C@H](C)OC)c2c3cc(ccc31)-c1csc(n1)C[C@H](NC(=O)[C@H]1[C@H](C)[C@@H]1C)C(=O)N1CCC[C@H](N1)C(=O)OCC(C)(C)C2` (atropisomer, axis not shown; (Ra)) [Compound Z793], for which the IC50 is 0.19 nM in assay [1] (setting [3]) and 0.14 nM with NCI-H441 cells (setting [4]).
For `CCn1c(-c2cc(C#CCN3CCCOCC3)cnc2[C@H](C)OC)c2c3cc(ccc31)-c1csc(n1)C[C@H](NC(=O)[C@H]1[C@H](C)[C@@H]1C)C(=O)N1CCC[C@H](N1)C(=O)OCC(C)(C)C2` (single isomer, unassigned) [Compound Z504] the same measures were 0.4 nM and 0.31 nM.
The matching figures for `CCO[C@@H](C)c1ncc(N2CCN(CCS(C)(=O)=O)CC2)cc1-c1c2c3cc(ccc3n1CC)-c1csc(n1)C[C@H](NC(=O)[C@H]1[C@H](C)[C@@H]1C)C(=O)N1CCC[C@H](N1)C(=O)OCC1(CC1)C2` (single isomer, unassigned) [Compound Z378-1]: 14.1 nM and 3.62 nM.
With `CO[C@@H](C)c1ncc(C#CCN2CCCOCC2)cc1-c1c2c3cc(ccc3n1CC(F)(F)F)-c1csc(n1)C[C@H](NC(=O)[C@H]1[C@H](C)[C@@H]1C)C(=O)N1CCC[C@H](N1)C(=O)OCC(C)(C)C2` (atropisomer, axis not shown; (Ra)) [Compound Z700, N-((6^3S,4S,Z)-1^1-(2,2,2-trifluoroethyl)-(Ra)-1^2-(2-((S)-1-methoxyethyl)-(5-(3-(1,4-oxazepan-4-yl)prop-1-yn-1-yl))-pyridin-3-yl)-10,10-dimethyl-5,7-dioxo-6^1,6^2,6^3,6^4,6^5,6^6-hexahydro-1^1H-8-oxa-2(4,2)-thiazola-1(5,3)-indola-6(1,3)-pyridazinacycloundecaphane-4-yl)-2,3-dimethylcyclopropane-1-carboxamide], the figures for the IC50 (in assay [1] (setting [2]); in the assay with NCI-H441 cells (setting [2])) were 0.18 nM and 0.17 nM, respectively.
For `CCn1c(-c2cc(C#CCN3CCCOCC3)cnc2[C@H](C)OC)c2c3cc(ccc31)-c1csc(n1)C[C@H](NC(=O)CC1CC1)C(=O)N1CCC[C@H](N1)C(=O)OCC(C)(C)C2` (atropisomer, axis not shown; (Ra)) [Compound Z915], the results for the IC50 (in assay [1] (setting [3]); with NCI-H441 cells (setting [4])) were 2.82 nM and 1.04 nM, respectively.
The matching figures for `CCn1c(-c2cc(N3CCN4CC5(CC5)OC[C@@H]4C3)cnc2[C@H](C)OC)c2c3cc(ccc31)-c1csc(n1)C[C@H](NC(=O)[C@H]1[C@H](C)[C@@H]1C)C(=O)N1CCC[C@H](N1)C(=O)OCC1(CC1)C2` (atropisomer, axis not shown; (Ra)) [Compound Z13]: 5 nM and 1.2 nM.
On to `CCn1c(-c2cc(C#CCN3CCCOCC3)cnc2[C@H](C)OC)c2c3cc(ccc31)-c1csc(n1)C[C@H](NC(=O)[C@H]1C[C@@H]1C)C(=O)N1CCC[C@H](N1)C(=O)OCC(C)(C)C2` (single isomer, unassigned) [Compound Z604], for which the IC50 worked out at 0.74 nM in assay [1] (setting [3]) and 0.45 nM with NCI-H441 cells (setting [4]).
The matching figures for `CCn1c(-c2cc(C#CCN3CCS(=O)(=O)CC3)cnc2[C@H](C)OC)c2c3cc(ccc31)-c1csc(n1)C[C@H](NC(=O)[C@H]1[C@H](C)[C@@H]1C)C(=O)N1CCC[C@H](N1)C(=O)OCC(C)(C)C2` (atropisomer, axis not shown; (Ra)) [Compound Z838, (1r,2R,3S)—N-((6^3S,4S,Z)—(Ra)-1^2-(5-(3-(1,1-dioxidothiomorpholino)prop-1-yn-1-yl)-2-((S)-1-methoxyethyl)pyridin-3-yl)-1^1-ethyl-10,10-dimethyl-5,7-dioxo-6^1,6^2,6^3,6^4,6^5,6^6-hexahydro-1^1H-8-oxa-2(4,2)-thiazola-1(5,3)-indola-6(1,3)-pyridazinacycloundecaphane-4-yl)-2,3-dimethylcyclopropane-1-carboxamide]: 0.03 nM and 0.06 nM.
For `CCn1c(-c2cc(N3CCN(CCS(C)(=O)=O)CC3)cnc2[C@H](C)OC)c2c3cc(ccc31)-c1csc(n1)C[C@H](NC(=O)[C@H]1[C@H](C)[C@@H]1C)C(=O)N1CCC[C@H](N1)C(=O)OCC1(CC1)C2` (single isomer, unassigned) [Compound Z367] the same measures were 13.5 nM and 2.14 nM.
The matching figures for `CCn1c(-c2cc(C#CCN3CCCOCC3)cnc2[C@H](C)OC)c2c3cc(ccc31)-c1csc(n1)C[C@H](NC(=O)CC(C)C)C(=O)N1CCC[C@H](N1)C(=O)OCC(C)(C)C2` (single isomer, unassigned) [Compound Z803]: 1.49 nM and 0.61 nM.

The IC50 is the concentration needed to halve the response being measured.
